The source made the active and inactive calls. The calls are words filed in the database; no cut-off is given here.
How the values were obtained:
[1] = target: T1, Cell division protein FtsZ (Staphylococcus aureus) (UniProt P0A031); experiment: Inhibition of FtsZ in Staphylococcus aureus ATCC 6538P assessed as growth inhibition at 100 ug per disc after 18 to 24 hrs by paper disc agar diffusion assay
T1 sequence (whole entry): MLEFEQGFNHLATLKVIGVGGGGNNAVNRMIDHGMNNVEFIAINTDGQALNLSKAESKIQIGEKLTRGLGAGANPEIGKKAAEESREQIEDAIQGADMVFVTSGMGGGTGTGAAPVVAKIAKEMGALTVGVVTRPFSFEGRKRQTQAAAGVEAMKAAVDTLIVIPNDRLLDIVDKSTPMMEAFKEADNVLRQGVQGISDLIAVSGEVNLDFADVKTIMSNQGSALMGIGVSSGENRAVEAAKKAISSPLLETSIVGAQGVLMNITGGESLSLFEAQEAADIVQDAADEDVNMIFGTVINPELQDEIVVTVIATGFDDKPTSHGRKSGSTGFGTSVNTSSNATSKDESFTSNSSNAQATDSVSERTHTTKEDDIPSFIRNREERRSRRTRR

Candida albicans = experiment: Antifungal activity against Candida albicans ATCC 10231 at 100 ug per disc after 3 to 5 days by paper disc agar diffusion assay; type: functional
[2] = system: Mycolicibacterium smegmatis; experiment: Inhibition of FtsZ in Mycobacterium smegmatis ATCC 607 assessed as growth inhibition at 100 ug per disc after 18 to 24 hrs by paper disc agar diffusion assay
Klebsiella aerogenes = experiment: Inhibition of FtsZ in Klebsiella aerogenes ATCC 9621 assessed as growth inhibition at 100 ug per disc after 18 to 24 hrs by paper disc agar diffusion assay
[3] = system: Escherichia coli ATCC 25922; experiment: Inhibition of FtsZ in Escherichia coli ATCC 25922 assessed as growth inhibition at 100 ug per disc after 18 to 24 hrs by paper disc agar diffusion assay
Aspergillus niger = experiment: Antifungal activity against Aspergillus niger ATCC 16404 at 100 ug per disc after 3 to 5 days by paper disc agar diffusion assay; type: functional
[4] = system: Bacillus subtilis subsp. spizizenii ATCC 6633 = JCM 2499; experiment: Inhibition of FtsZ in Bacillus subtilis ATCC 6633 assessed as ratio of diameter of zone inhibition of test compound to diameter of zone inhibition of tetracycline at 100 ug per disc after 18 to 24 hrs by paper disc agar diffusion assay
Pseudomonas aeruginosa = experiment: Inhibition of FtsZ in Pseudomonas aeruginosa ATCC 9027 assessed as growth inhibition at 100 ug per disc after 18 to 24 hrs by paper disc agar diffusion assay
[5] = target: T1, Cell division protein FtsZ (Staphylococcus aureus); experiment: Inhibition of FtsZ in Staphylococcus aureus ATCC 6538P assessed as ratio of diameter of zone inhibition of test compound to diameter of zone inhibition of cephaloridine at 100 ug per disc after 18 to 24 hrs by paper disc agar diffusion assay
[6] = system: Bacillus subtilis subsp. spizizenii ATCC 6633 = JCM 2499; experiment: Inhibition of FtsZ in Bacillus subtilis ATCC 6633 assessed as growth inhibition at 100 ug per disc after 18 to 24 hrs by paper disc agar diffusion assay
[7] = system: Mycolicibacterium smegmatis; experiment: Inhibition of FtsZ in Mycobacterium smegmatis ATCC 607 assessed as ratio of diameter of zone inhibition of test compound to diameter of zone inhibition of streptomycin at 100 ug per disc after 18 to 24 hrs by paper disc agar diffusion assay
Klebsiella pneumoniae = experiment: Inhibition of FtsZ in Klebsiella pneumoniae ATCC 9621 assessed as growth inhibition at 100 ug per disc after 18 to 24 hrs by paper disc agar diffusion assay

Compound	inhibition [1]	Activity (Candida albicans)	inhibition [2]	inhibition (Klebsiella aerogenes)	inhibition [3]	Activity (Aspergillus niger)	Ratio [4]	inhibition (Pseudomonas aeruginosa)	Ratio [5]	inhibition [6]	Ratio [7]	inhibition (Klebsiella pneumoniae)
N#Cc1ccc(OCCOC(=O)COc2ccc(F)c(C(N)=O)c2F)cc1	inactive	inactive	inactive	inactive	inactive	inactive	0.11	inactive				
NC(=O)c1c(F)ccc(OCc2nc3cc(Cl)cnc3s2)c1F			inactive						1.2	inactive		
NC(=O)c1c(F)ccc(OCCCOc2cccc3ccccc23)c1F	inactive	inactive	inactive	inactive	inactive	inactive		inactive		inactive		
NS(=O)(=O)c1c(F)ccc(OCc2nc3cc(Cl)cnc3s2)c1F	inactive	inactive	inactive	inactive	inactive	inactive		inactive		inactive		
Cc1ccc2cccc(OCCCOc3ccc(F)c(C(N)=O)c3F)c2n1	inactive	inactive	inactive	inactive	inactive	inactive		inactive		inactive		
NC(=O)c1c(F)ccc(OCCCOc2c(Cl)cc(Cl)c3cccnc23)c1F		inactive		inactive	inactive	inactive	0.1	inactive	0.18		0.2	
NC(=O)c1c(F)ccc(OCC(=O)OCCOc2ccc(Br)cc2)c1F		inactive	inactive	inactive	inactive	inactive	0.15	inactive	0.22			
COc1ccc(OCCOC(=O)COc2ccc(F)c(C(N)=O)c2F)cc1	inactive	inactive		inactive	inactive	inactive	0.51	inactive			0.37	
NC(=O)c1c(F)ccc(OCC(=O)Oc2ccccc2)c1F		inactive		inactive	inactive	inactive	0.19	inactive	0.07		0.5	
NC(=O)c1c(F)ccc(OCC(=O)OCc2ccccc2)c1F	inactive	inactive	inactive	inactive	inactive	inactive	0.18	inactive				
NC(=O)c1c(F)ccc(OCCCOc2ccc3ccccc3c2)c1F	inactive	inactive	inactive	inactive	inactive	inactive		inactive		inactive		
NC(=O)c1c(F)ccc(OCCCOc2ccc(Cl)c3cccnc23)c1F		inactive	inactive	inactive	inactive	inactive	0.1	inactive	0.25			
Cc1ccc(OCCOC(=O)COc2ccc(F)c(C(N)=O)c2F)cc1		inactive	inactive	inactive	inactive	inactive	0.25	inactive	0.1			
NC(=O)c1c(F)ccc(OCC(=O)OCCOc2ccc(F)cc2)c1F		inactive		inactive	inactive	inactive	0.18	inactive	0.44		0.62	
NC(=O)c1c(F)ccc(OCC(=O)OCCOc2ccccc2)c1F		inactive		inactive	inactive	inactive	0.18	inactive	0.18		0.36	
Cc1ccc(OC(=O)COc2ccc(F)c(C(N)=O)c2F)cc1		inactive		inactive	inactive	inactive	0.3	inactive	0.25		0.07	
COc1ccc(OC(=O)COc2ccc(F)c(C(N)=O)c2F)cc1	inactive	inactive		inactive	inactive	inactive	0.15	inactive			0.19	
NC(=O)c1c(F)ccc(OCCCOC(=O)c2ccccc2)c1F	inactive	inactive	inactive		inactive	inactive		inactive		inactive		inactive
NC(=O)c1c(F)ccc(OCCC(=O)Oc2ccccc2)c1F		inactive		inactive	inactive	inactive	0.3	inactive	0.41			
NC(=O)c1c(F)ccc(OCCCOc2cccc3cccnc23)c1F		inactive	inactive	inactive	inactive	inactive		inactive	0.07	inactive		
NC(=O)c1c(F)ccc(OCC(=O)Nc2ccccc2)c1F		inactive	inactive	inactive	inactive	inactive	0.1	inactive	0.1			
NC(=O)c1c(F)ccc(OCCOC(=O)c2ccccc2)c1F	inactive	inactive	inactive		inactive	inactive		inactive		inactive		inactive
NS(=O)(=O)c1c(F)ccc(OCc2nc3cc(Cl)ccc3s2)c1F	inactive	inactive	inactive	inactive	inactive	inactive		inactive		inactive		

Reference: ChEMBL document CHEMBL4007481, “Synthesis and antibacterial activity of 3-benzylamide derivatives as FtsZ inhibitors” (Bioorg Med Chem Lett, 2017)
